Entries after “also recorded” stand apart in the source; their conditions may differ.
Legend:
human ERRβ = target: T1, human ERRβ (Homo sapiens, UniProt O95718); test: GAL4 DBD-ERRβ LBD cotransfection luciferase reporter assay in CV-1 cells; type: cell-based
T1 construct: expressed in transfected cells; host or cells: CV-1 cells, cytomegalovirus-driven expression vectors
T1 sequence (O95718 208-432 limits assumed): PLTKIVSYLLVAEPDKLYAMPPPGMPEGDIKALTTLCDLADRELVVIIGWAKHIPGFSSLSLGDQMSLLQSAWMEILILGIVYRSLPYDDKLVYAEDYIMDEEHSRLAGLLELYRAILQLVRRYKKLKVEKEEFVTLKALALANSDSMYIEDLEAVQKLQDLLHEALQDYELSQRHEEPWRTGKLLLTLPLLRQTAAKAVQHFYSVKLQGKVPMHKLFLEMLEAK
Experimental: (§1) To assess the functional transcriptional activity of these compounds, cell-based assays using chimeric receptor Gal4 DNA-binding domain (DBD)-NR ligand binding domain cotransfection assay (LBDs of ERRα, ERRγ, and ERRβ) were performed. As an initial screen to determine the ERRγ and ERRβ inhibitory activity and selectivity, all compounds were evaluated for in vitro potency and selectivity by transfection testing, using CV-1 cells transfected with human and mouse ERRs. MH100×4 is a luciferase reporter with four copies of a GAL4 UASG response element, where GAL-I refers to the ligand-binding domain of the indicated receptor fused to the C-terminus of the GAL4 DNA-binding domain. Assays were performed using a Biomek automated workstation in which the genes for the nuclear receptor, as well as a plasmid containing a response element upstream of a luciferase cDNA, are transfected into CV-1 cells. Compounds were evaluated for their ability to inhibit human ERRs at 0.03, 0.1, 0.5, 1, 2.5, 3, and 10 μM test concentrations. […] Z-4-OHT used as a known ERRγ and ERRβ inverse agonist to compare the constitutive activity of unliganded ERRγ and ERRβ.
(§2) Cell culture. CV-1 cells were grown in Dulbecco's modified Eagle's medium supplemented with 10% resin charcoalstripped fetal bovine serum, 50 U/ml penicillin G, and 50 μg/ml streptomycin sulfate (DMEM-FBS) at 37° C. in 5% CO2. One day prior to transfection, cells were plated to 50%-80% confluence using phenol red free DMEM-FBS. The adenoviral construct, Ad-GFP and Ad-ERRα have been described.^55 Propagation of recombinant adenovirus was performed in 293 cells as described.^11
(§3) Cell based transactivation assays were performed in CV-1 cells as described.^49 ERR activity was assayed with a GAL4 reporter construct and fusion proteins containing the ligand binding domains of human ERRα, human ERRβ and mouse ERRγ linked to the DNA binding domain of yeast GAL4. Human ERα and ERβ were examined as full-length proteins using an estrogen receptor responsive reporter construct. Reporter constructs (300 ng/10^5 cells) and cytomegalovirus-driven expression vectors (20-50 ng/10^5 cells) were added as indicated along with CMX-β-gal (500 ng/10^5 cells) as an internal control. Cells were transiently transfected by Lipofectamine as described.^56 Cells were incubated with DNA complexed liposomes for 2 hours and subsequently treated for approximately 45 hr with phenol red free DMEM FBS containing the indicated compounds. After exposure to ligand, the cells were harvested and assayed for luciferase and β-galactosidase activity. […] Fold activation is reported.

Human ERα = target: T2, Human ERα (Homo sapiens, UniProt P03372); test: Full-length ERα, estrogen receptor responsive reporter assay in CV-1 cells; type: cell-based; conditions: for effect on ERα transcriptional activity: up to 3 μM
T2 construct: Human ERα and ERβ were examined as full-length proteins using an estrogen receptor responsive reporter construct; expressed in transfected cells; host or cells: CV-1 cells, cytomegalovirus-driven expression vectors
T2 sequence (P03372 1-595): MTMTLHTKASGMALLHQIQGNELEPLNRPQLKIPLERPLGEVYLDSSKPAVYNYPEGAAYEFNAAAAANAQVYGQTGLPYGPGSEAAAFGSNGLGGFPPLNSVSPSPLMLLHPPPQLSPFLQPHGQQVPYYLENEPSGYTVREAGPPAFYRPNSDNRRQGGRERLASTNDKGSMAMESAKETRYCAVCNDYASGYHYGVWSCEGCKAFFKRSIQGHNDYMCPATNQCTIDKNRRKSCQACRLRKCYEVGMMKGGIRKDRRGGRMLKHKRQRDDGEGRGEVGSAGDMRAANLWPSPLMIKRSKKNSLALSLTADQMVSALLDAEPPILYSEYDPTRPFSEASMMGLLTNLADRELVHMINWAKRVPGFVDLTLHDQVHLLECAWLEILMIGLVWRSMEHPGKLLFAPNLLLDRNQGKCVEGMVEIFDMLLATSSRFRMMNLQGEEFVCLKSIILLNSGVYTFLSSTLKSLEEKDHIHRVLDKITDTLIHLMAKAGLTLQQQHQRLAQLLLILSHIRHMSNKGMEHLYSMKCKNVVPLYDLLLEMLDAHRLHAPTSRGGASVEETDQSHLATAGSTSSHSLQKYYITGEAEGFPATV
Experimental: (§4) Cell based transactivation assays were performed in CV-1 cells as described.^49 ERR activity was assayed with a GAL4 reporter construct and fusion proteins containing the ligand binding domains of human ERRα, human ERRβ and mouse ERRγ linked to the DNA binding domain of yeast GAL4. Human ERα and ERβ were examined as full-length proteins using an estrogen receptor responsive reporter construct. Reporter constructs (300 ng/10^5 cells) and cytomegalovirus-driven expression vectors (20-50 ng/10^5 cells) were added as indicated along with CMX-β-gal (500 ng/10^5 cells) as an internal control. Cells were transiently transfected by Lipofectamine as described.^56 Cells were incubated with DNA complexed liposomes for 2 hours and subsequently treated for approximately 45 hr with phenol red free DMEM FBS containing the indicated compounds. After exposure to ligand, the cells were harvested and assayed for luciferase and β-galactosidase activity. All points were assayed in triplicate and varied by less than 15%. Each experiment was repeated three or more times with similar results. Fold activation is reported.

Human ERβ = target: T3, Human ERβ (Homo sapiens, UniProt Q92731); test: Full-length ERβ, estrogen receptor responsive reporter assay in CV-1 cells; type: cell-based; conditions: up to 3 μM
T3 construct: Human ERα and ERβ were examined as full-length proteins using an estrogen receptor responsive reporter construct; expressed in transfected cells; host or cells: CV-1 cells, cytomegalovirus-driven expression vectors
T3 sequence (Q92731 whole entry): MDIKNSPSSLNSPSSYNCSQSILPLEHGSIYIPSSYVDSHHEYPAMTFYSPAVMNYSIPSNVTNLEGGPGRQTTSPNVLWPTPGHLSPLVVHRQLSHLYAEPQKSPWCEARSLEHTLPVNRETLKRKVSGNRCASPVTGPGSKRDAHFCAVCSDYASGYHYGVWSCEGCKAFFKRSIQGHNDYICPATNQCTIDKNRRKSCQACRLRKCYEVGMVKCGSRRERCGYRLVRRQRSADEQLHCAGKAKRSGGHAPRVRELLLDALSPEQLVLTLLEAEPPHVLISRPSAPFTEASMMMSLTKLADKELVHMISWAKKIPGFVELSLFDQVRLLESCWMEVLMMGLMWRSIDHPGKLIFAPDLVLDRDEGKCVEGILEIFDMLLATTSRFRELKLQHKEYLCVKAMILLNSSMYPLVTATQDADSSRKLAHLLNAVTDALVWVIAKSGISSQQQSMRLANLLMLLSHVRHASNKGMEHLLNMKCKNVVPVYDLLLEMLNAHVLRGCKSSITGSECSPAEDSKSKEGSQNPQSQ
Experimental: as §4

human ERRα = target: T4, human ERRα (Homo sapiens, UniProt P11474); test: GAL4 DBD-ERRα LBD cotransfection luciferase reporter assay in CV-1 cells; type: cell-based; conditions: for IC50: CV-1 cells co-transfected with reporter and expression vectors, human ERRα LBD; for effect on ERRα transcriptional activity: up to 3 μM
T4 construct: expressed in transfected cells; host or cells: CV-1 cells, cytomegalovirus-driven expression vectors
T4 sequence (P11474 193-421 limits assumed): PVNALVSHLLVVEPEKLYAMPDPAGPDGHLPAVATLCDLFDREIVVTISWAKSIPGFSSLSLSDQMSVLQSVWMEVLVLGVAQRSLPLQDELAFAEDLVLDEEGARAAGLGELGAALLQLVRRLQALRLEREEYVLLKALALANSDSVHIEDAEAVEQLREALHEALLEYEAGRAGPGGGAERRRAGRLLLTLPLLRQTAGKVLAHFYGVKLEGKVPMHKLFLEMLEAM
Experimental: as §1, §2, §3

mouse ERRγ = target: T5, mouse ERRγ (Mus musculus, UniProt P62509); test: GAL4 DBD-ERRγ LBD cotransfection luciferase reporter assay in CV-1 cells; type: cell-based; conditions: for IC50: CV-1 cells co-transfected with reporter and expression vectors, mouse ERRγ LBD; for effect on ERRγ transcriptional activity: up to 3 μM
T5 construct: expressed in transfected cells; host or cells: CV-1 cells, cytomegalovirus-driven expression vectors
T5 sequence (P62509 233-457 limits assumed): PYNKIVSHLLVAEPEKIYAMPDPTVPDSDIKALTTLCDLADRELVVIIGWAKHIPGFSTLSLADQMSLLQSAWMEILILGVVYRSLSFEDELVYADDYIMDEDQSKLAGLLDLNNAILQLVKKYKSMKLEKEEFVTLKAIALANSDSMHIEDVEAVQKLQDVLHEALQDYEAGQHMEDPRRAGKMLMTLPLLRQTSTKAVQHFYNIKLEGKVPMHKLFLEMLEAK
Experimental: as §1, §2, §3

ERRγ target gene SHP = test: Endogenous SHP transcript by real-time PCR in C2C12 myotubes; type: cell-based, mouse; conditions: 100 nM, 48 hours, vs DMSO
Experimental: (§5) FIGS. 7A-7C. […] FIG. 7A. 293 HEK cells expressing either GFP or ERRγ via adenoviral transduction were treated with either vehicle (DMSO) or 100 nM DY40 for 48 hours. Expression of endogenous SHP (NR0B2) was quantitated by real-time PCR. Values are normalized to β-actin transcript and reported relative to GFP untreated levels (=1.0). Data represent mean±S.E.M. for 3 independent trials. FIG. 7B. C2C12 myotubes were treated with either vehicle or 100 nM DY40 for 48 hours. Expression of endogenous SHP was measured by quantitative real-time PCR. Values are normalized to 36b4 (Rp1p0) transcript and reported relative to expression in DMSO treated cells (=1.0). Data represent mean±S.E.M. for 3 independent trials. *, P<0.05 DMSO versus DY40 treated values. FIG. 7C. C2C12 myotubes were treated with either vehicle or 100 nM DY40 for 48 hours. Oxidation of ^3H-palmitate-BSA was measured as described in Methods. Values are normalized to total cellular protein and reported relative to expression in DMSO treated cells (=1.0). […]
(§6) Validation of DY40 effects on endogenous ERRγ target gene expression and metabolism in cell based models. […] We also evaluated the effects of the compound in C2C12 myotubes that have significant endogenous ERRγ expression. […]
(§7) Experimental transcript levels were normalized to 36B4 ribosomal RNA analyzed in separate reactions. […]

[1] = tested on: ERRγ target gene SHP (NR0B2); test: Endogenous SHP (NR0B2) expression by real-time PCR in 293 HEK cells expressing ERRγ via adenovirus; type: cell-based, human; conditions: 293HEK over-expressing ERRγ, 100 nM, 48 hours
Experimental: as §5, §6, §7

C2C12 myotubes = test: Fatty acid oxidation assay (3H-palmitate-BSA) in C2C12 myotubes; type: cell-based; conditions: 100 nM, 48 hours, compared to vehicle-treated controls
Experimental: as §5, with “Methods.” for “Methods. Values are normalized to total cellular protein and reported relative to expression in DMSO treated cells (=1.0).”
The analysis of fatty acid oxidation rates in cells was performed as previously described.^57 Fatty acid ^3H-[9,10]-palimitic acid was complexed to fatty acid-free BSA and this complex was added to 30 uM unlabeled palmitate. […] The substrate was removed and radiolabeled aqueous metabolites (^3H2O) released to the media were measured by scintillation counting. The calculated rates were normalized to total cellular protein.

ER = conditions: % of the affinity of the Z isomer of 4-OHT; cited from earlier work

## CCCC(=C(c1ccc(O)cc1)c1ccc(O)cc1)c1ccccc1 [Compound 1b, 1,1-Bis (4-hydroxyphenyl)-2-phenylpent-1-ene]
other
  melting point: 192.7 °C

## COC(=O)CC/C(=C(\c1ccc(O)cc1)c1ccc(OCCN(C)C)cc1)c1ccccc1 [Compound 3g, (Z)-5-[4-(2-Dimethylamino-ethoxy)-phenyl]-5-(4-hydroxyphenyl)-4-phenyl-pent-4-enoic acid methyl ester]
Human ERRβ; CV-1 cells co-transfected with reporter and expression vectors, human ERRβ LBD
  IC50: 350 nM
Human ERα
  effect on ERα transcriptional activity: no effect
Human ERβ
  effect on ERβ transcriptional activity: no effect
Human ERRα
  IC50: > 10000 nM
  effect on ERRα transcriptional activity: no effect
Mouse ERRγ
  IC50: 3500 nM
  effect on ERRγ transcriptional activity: no effect

## COC(=O)C(C)C/C(=C(\c1ccc(O)cc1)c1ccc(OCCN(C)C)cc1)c1ccccc1 (centres unmarked) [Compound 3h, (Z)-5-[4-(2-Dimethylamino-ethoxy)-phenyl]-5-(4-hydroxyphenyl)-2-methyl-4-phenyl-pent-4-enoic acid methyl ester]
Human ERRβ; ERRα, ERRβ, ERRγ transactivation panel
  identified as (inverse agonist class / selectivity): selective inverse agonist for the ERRβ; also recorded: ERRβ inverse agonists
Human ERRβ; cell-based transactivation in CV-1 cells
  IC50: 50 nM
Human ERα
  effect on ERα transcriptional activity: no effect
Human ERβ
  effect on ERβ transcriptional activity: no effect
Human ERRα
  IC50: > 10000 nM
  effect on ERRα transcriptional activity: no effect
Mouse ERRγ
  IC50: 2780 nM
  effect on ERRγ transcriptional activity: no effect

## CC(=O)Oc1ccc(/C(=C(/c2ccccc2)C(C)C)c2ccc(OCCN(C)C)cc2)cc1 [Compound 4a, (E)-4-{1-[4-(2-dimethylamino-ethoxy)-phenyl]-3-methyl-2-phenyl-but-1-enyl}-phenyl acetate]
ERRγ target gene SHP
  repression of endogenous SHP transcript levels: ~60%
[1]
  ERRγ mediated induction of SHP transcript: completely blocked
C2C12 myotubes
  change in palmitate oxidation rates: −42%
Human ERα; selectivity evaluation
  ERα antagonist activity, in words: remains an antagonist potency of ERα

## CC/C(=C(/c1ccc(O)cc1)c1ccc(OCCN(C)C)cc1)c1ccccc1 [Compound E-4-OHT, reference compound]
Human ERRβ; cell-based cotransfection assay
  activity on ERRβ, in words: much less active
ER
  affinity for the ER relative to the Z isomer: about 5%
Mouse ERRγ; cell-based cotransfection assay, 1g, 1h: at the higher dose
  activity on ERRγ, in words: much less active

From US10590056B2, “ERR modulators and uses thereof” (CITY OF HOPE, priority 2017, dated 2020)
